Results reported in patent US5663139A, “Inhibitors of retroviral proteases” (Hoechst Aktiengesellschaft, priority 1992, dated 1997).
Structures can show the parent of a compound that is named as a salt.

The compounds below were run against T1, HIV protease (Human immunodeficiency virus type 1 group M subtype B, UniProt P04585) (assay: HIV protease enzyme test (HPLC cleavage of heptapeptide substrate H-Ser-Phe-Asn-Phe-Opr-Gln-Ile-OH)). Settings: inhibitor concentration at which the cleavage rate is halved, 37° C., 2 hours.
T1 construct: The HIV protease is composed of 99 amino acids and evidently excises itself out of the pol polyprotein
Assay type: biochemical
Text: In particular, they inhibit HIV protease. Their enzyme-inhibitory effect, which is in the milli- to subnano-molar range, can be determined as follows.
The substrates of the HIV protease which have been employed thus far include the heptapeptide: H-Ser-Phe-Asn-Phe-Pro-Gln-Ile-OH (SEQ ID NO. 1) (P. L. Darke et al., Biophys. Res. Commun. 156 (1988) 297-303). When this peptide is used as the substrate, the HIV protease cleaves it between the second Phe and the Pro.
General instructions for testing inhibitors of the HIV proteases:
2 mg of H-Ser-Phe-Asn-Phe-Opr-Gln-Ile-OH (H-Opr-OH=5-oxaproline) (SEQ ID NO. 1) are dissolved in 1 ml of MGTE 15 buffer (use of ultrasonication if required) and this solution is subsequently filtered through a sterilizing filter (0.45 μm).
2.5 times the necessary quantity of inhibitor to give the desired molarity per ml of solution is weighed out and dissolved in DMSO (10% of the final volume). This solution is diluted with MGTE 15 buffer to the final volume and then filtered through a sterilizing filter (0.45 μm).
5 μl of the HIV protease solution are diluted with MGTE25 buffer as required.
In each case, 10 μl of the substrate solution are pipetted into a test tube (16×100) having a screw cap. 10 μl of MGTE 15 buffer, which contains 10% DMSO, are pipetted in for the blank experiment. 10 μl of the inihibitor solutions are added to each of the remaining test tubes. The tubes are incubated at 37° C. for 5-10 minutes and 5 μl of the protease solution are then added to each sample. Following reaction at 37° C. for 2 hours, 10 or 20 μl (depending on the sensitivity of the HPLC equipment) are pipetted out from each sample, added to microvials and diluted with 120 μl of the HPLC eluant.
e) Conditions for the HPLC Analysis
Under the conditions chosen for this experiment, the heptapeptide is separated from the N-terminal tetrapeptide resulting from the enzymic cleavage. The % content of tetrapeptide peak related to the sum of tetrapeptide+heptapeptide gives the cleavage rate. The following IC50 values indicate the inhibitor concentrations at which the cleavage rate is halved: […]

Row | Structure (SMILES) | IC50 [nM]
1 | CCOP(=O)(C(Cc1ccccc1)NC(=O)[C@@H](NC(=O)OCc1ccccc1)C(C)C)C(O)C(Cc1ccccc1)NC(=O)[C@@H](NC(=O)OCc1ccccc1)C(C)C (some centres unmarked) [Example 3] | 70
2 | CC(C)[C@H](NC(=O)OCc1ccccc1)C(=O)NC(Cc1ccccc1)C(O)P(=O)(O)C(Cc1ccccc1)NC(=O)[C@@H](NC(=O)OCc1ccccc1)C(C)C (stereo partly drawn) [Example 4, 1-{2-[(Benzyloxycarbonyl-L-valyl)amino]-1-hydroxy-3-phenylpropyl},1-{-[(benzyloxycarbonyl-L-valyl)amino]-2-phenylethyl}phosphinic acid] | 1.3
3 | CCOP(=O)(C(Cc1ccccc1)NC(=O)[C@@H](NC(=O)[C@@H](N)Cc1cccc2ccccc12)C(C)C)C(O)C(Cc1ccccc1)NC(=O)[C@@H](NC(=O)[C@@H](N)Cc1cccc2ccccc12)C(C)C (stereo partly drawn) [Example 7, Ethyl 1-{2-[(L-naphthylalanyl-L-valyl)amino]-1-hydroxy-3-phenylpropyl},1-{1-[(L-naphthylalanyl-L-valyl)amino]-2-phenylethyl}phosphinate bistrifluoroacetate] | 15
4 | CC(C)[C@H](NC(=O)[C@@H](N)Cc1cccc2ccccc12)C(=O)NC(Cc1ccccc1)C(O)P(=O)(O)C(Cc1ccccc1)NC(=O)[C@@H](NC(=O)[C@@H](N)Cc1cccc2ccccc12)C(C)C (stereo partly drawn) [Example 8, 1-{2-[(L-Naphthylalanyl-L-valyl)amino]-1-hydroxy-3-phenylpropyl},1-{1-[(L-naphthylalanyl-L-valyl)amino]-2-phenylethyl}phosphinic acid dihydrobromide] | 0.5
5 | CC(C)[C@H](NC(=O)C(Cc1cccc2ccccc12)CS(=O)(=O)C(C)(C)C)C(=O)NC(Cc1ccccc1)C(O)P(=O)(O)C(Cc1ccccc1)NC(=O)[C@@H](NC(=O)C(Cc1cccc2ccccc12)CS(=O)(=O)C(C)(C)C)C(C)C (stereo partly drawn) [Example 10, 1-{2-[((2S(tert-Butylsulfonylmethyl)-3-(1-naphthyl)-propionyl)-L-valyl)amino]-1-hydroxy-3-phenylpropyl},1-{1-[((2S(tert-butylsulfonylmethyl)-3-(1-naphthyl)propionyl)-L-valyl)amino]-2-phenylethyl}phosphinic acid] | 4.2
